# ChEMBL document CHEMBL1153569, “Development of QSAR models for predicting hepatocarcinogenic toxicity of chemicals” (Eur J Med Chem, 2009)
# Species: Mus musculus
# Assay: Hepatotoxicity in mouse assessed as carcinogenic potency
# Conditions: in vivo
row,Structure (SMILES),pTD50
1,ClC(Cl)Cl [CHLOROFORM],3.361
2,O=[N+]([O-])c1ccc2[nH]cnc2c1,2.458
3,S=C1NCCN1 [ETHYLENE THIOUREA],3.341
4,O=[N+]([O-])c1ccc2c3c(cccc13)CC2,3.638
5,FC(F)=C(F)F [TETRAFLUOROETHYLENE],2.907
6,"Clc1ccc(Cl)cc1 [1,4-DICHLOROBENZENE]",2.328
7,Cc1ccc(Cl)cc1N,2.77
8,O=C1NC(=O)C(c2ccccc2)(c2ccccc2)N1 [PHENYTOIN],3.18
9,ClC=C(Cl)Cl [TRICHLOROETHYLENE],2.16
10,Nc1cccc2c(N)cccc12,3.14
11,O=C(O)c1cc(/N=N/c2ccc(S(=O)(=O)Nc3ccccn3)cc2)ccc1O [SULFASALAZINE],1.866
12,Cc1noc(NS(=O)(=O)c2ccc(N)cc2)c1C [SULFISOXAZOLE],2.004
13,Nc1cc(Cl)c(N)c(Cl)c1,1.941
14,ClC(Cl)Br [BROMODICHLOROMETHANE],3.056
15,Nc1ccc(Cl)c(N)c1,1.9
16,Nc1ccc(Cl)cc1N,1.73
17,Cc1cc(C)c(N)cc1C,4.344
18,"Clc1cc2c(cc1Cl)Oc1cc(Cl)c(Cl)cc1O2 [2,3,7,8-TETRACHLORODIBENZO-P-DIOXIN]",8.867
19,CNc1ccc(N(CCO)CCO)cc1[N+](=O)[O-] [HC BLUE NO. 1],2.953
20,CC(Cl)(Cl)Cl [TRICHLOROETHANE],3.38
21,NC(=S)NNC(N)=S,1.423
22,C=CC=C [BUTADIENE],3.091
23,COc1ccc([N+](=O)[O-])cc1N,1.93
24,Nc1ccc(Oc2ccc(N)cc2)cc1,2.9
25,ClC(Cl)=C(c1ccc(Cl)cc1)c1ccc(Cl)cc1 [DICHLORODIPHENYLDICHLOROETHYLENE],4.492
26,"ClCC(Cl)CCl [1,2,3-TRICHLOROPROPANE]",4.041
27,C1COCCO1 [DIOXANE],1.883

row,Structure (SMILES),pTD50
1,Nc1ccccc1C(=O)OC/C=C/c1ccccc1 [CINNAMYL ANTHRANILATE],1.529
2,CCCl [ETHYL CHLORIDE],0.93
3,O=NN(O)c1ccccc1 [CUPFERRON],2.439
4,"ClC(Cl)C(Cl)Cl [1,1,2,2-TETRACHLOROETHANE]",3.63
5,ClC(Cl)=C(Cl)Cl [TETRACHLOROETHYLENE],3.1
6,Nc1cc(Cl)cc(C(=O)O)c1Cl [CHLORAMBEN],1.607
7,CCOC(=O)C(O)(c1ccc(Cl)cc1)c1ccc(Cl)cc1 [CHLOROBENZILATE],2.862
8,CN(C)c1ccc(C(=O)c2ccc(N(C)C)cc2)cc1 [MICHLER'S KETONE],3.383
9,C1CCOC1 [TETRAHYDROFURAN],1.233
10,C=C(C)[C@H]1CC=C(C)CC1 [D-LIMONENE],1.113
11,COc1ccc(C)cc1N,2.639
12,ClCCl [METHYLENE CHLORIDE],1.581
13,"Nc1ccc(Sc2ccc(N)cc2)cc1 [4,4'-THIODIANILINE]",3.809
14,Nc1ccc2c(c1)C(=O)c1ccccc1C2=O,2.185
15,Cc1ccc(N)cc1N,3.66
16,O=C1C2(Cl)C3(Cl)C4(Cl)C(Cl)(Cl)C5(Cl)C3(Cl)C1(Cl)C5(Cl)C24Cl (centres undefined) [KEPONE],5.662
17,ClC(Cl)C(Cl)(Cl)Cl [PENTACHLOROETHANE],3.39
18,Cc1ccc([N+](=O)[O-])cc1N,2.74
19,O=[N+]([O-])c1ccc(Oc2ccc(Cl)cc2Cl)cc1 [NITROFEN],3.203
20,CCCN(CCC)c1c([N+](=O)[O-])cc(C(F)(F)F)cc1[N+](=O)[O-] [TRIFLURALIN],2.96
21,ClC(Cl)(Cl)C(Cl)(Cl)Cl [HEXACHLOROETHANE],2.683
22,c1ccc(NNc2ccccc2)cc1 [HYDRAZOBENZENE],3.793
23,ClCC(Cl)(Cl)Cl,2.419
24,CCc1ccc(C(c2ccc(CC)cc2)C(Cl)Cl)cc1,1.988
25,C=C(Cl)CSC(=S)N(CC)CC [SULFALLATE],3.32
26,"Nc1c(Br)cc(Br)c2c1C(=O)c1ccccc1C2=O [1-AMINO-2,4-DIBROMOANTHRA-QUINONE]",2.313
27,C=CC(=C)Cl [CHLOROPRENE],3.689
